Data reported in PubChem BioAssay AID330 (DTP/NCI, 2004).
“And” between values parts separate entries of the source, which are not always exact repeats. Identical values can stand only once. Inconclusive results and toxic doses are left out.

Test system: P388 leukemia ip, CD2F1 mice, survival T/C
Experiment: NCI In Vivo Anticancer Drug Screen. Data for tumor model P388 Leukemia (intraperitoneal) in CD2F1 (CDF1) mice
Settings: endpoint: median survival time, higher = longer survival
In short: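 Mice carrying the transplanted tumor received test compound or vehicle. Survival was recorded in each group, and the value is the treated-group measurement divided by that of the vehicle-treated control group.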

[1] = dose: 200.0 mg/kg/injection, schedule: Q04DX003 (ip), vehicle: saline
[2] = dose: 50.0 mg/kg/injection, schedule: Q01DX009 (ip), vehicle: saline with Tween-80

Structure (SMILES): Nc1ccn(C2OC(CO)C(O)C2O)c(=O)n1 (configuration not stated)
- T/C (dose: 2.0 mg/kg/injection, schedule: Q01DX009 (ip), vehicle: saline): 160 % of control
- T/C (dose: 10.0 mg/kg/injection, schedule: Q01DX005 (ip), vehicle: saline): 160 % of control
- T/C (dose: 60.0 mg/kg/injection, schedule: Q01DX005 (ip), vehicle: saline): 190 % of control
- T/C (dose: 100.0 mg/kg/injection, schedule: Q04DX002 (ip), vehicle: saline): 120 % of control
- T/C (dose: 128.0 mg/kg/injection, schedule: Q01DX009 (ip), vehicle: saline): 170 % of control and 250 % of control
- T/C (dose: 200.0 mg/kg/injection, schedule: Q01DX005 (ip), vehicle: saline): 200 % of control
- T/C (dose: 200.0 mg/kg/injection, schedule: Q01DX009 (ip), vehicle: saline): 100 % of control
- T/C [1]: 100 % of control
- T/C (dose: 324.0 mg/kg/injection, schedule: Q04DX003 (ip), vehicle: saline): 190 % of control
- T/C (dose: 400.0 mg/kg/injection, schedule: Q01DX009 (ip), vehicle: saline with Tween-80): 100 % of control
- T/C (dose: 400.0 mg/kg/injection, schedule: Q01DX009 (ip), vehicle: saline): 99 % of control and 110 % of control
- T/C (dose: 500.0 mg/kg/injection, schedule: Q04DX003 (ip), vehicle: saline): 200 % of control
- T/C (dose: 512.0 mg/kg/injection, schedule: Q01DX009 (ip), vehicle: saline): 90 % of control
- T/C (dose: 800.0 mg/kg/injection, schedule: Q01DX009 (ip), vehicle: saline with Tween-80): 99 % of control
- T/C (dose: 800.0 mg/kg/injection, schedule: Q01DX009 (ip), vehicle: saline): 110 % of control and 91 % of control
- T/C (dose: 900.0 mg/kg/injection, schedule: Q04DX003 (ip), vehicle: saline): 210 % of control
- T/C (dose: 1200.0 mg/kg/injection, schedule: Q01DX009 (ip), vehicle: saline with Tween-80): 100 % of control
- T/C (dose: 1600.0 mg/kg/injection, schedule: Q01DX009 (ip), vehicle: saline): 91 % of control
- T/C (dose: 1600.0 mg/kg/injection, schedule: Q04DX002 (ip), vehicle: saline): 120 % of control
- T/C (dose: 2400.0 mg/kg/injection, schedule: Q01DX009 (ip), vehicle: saline with Tween-80): 90 % of control

Structure (SMILES): C=C(Cl)CSc1ncnc2nc[nH]c12
- T/C [2]: 100 % of control
- T/C (dose: 50.0 mg/kg/injection, schedule: Q04DX003 (ip), vehicle: saline with Tween-80): 95 % of control
- T/C (dose: 100.0 mg/kg/injection, schedule: Q01DX009 (ip), vehicle: saline with Tween-80): 109 % of control
- T/C (dose: 100.0 mg/kg/injection, schedule: Q04DX003 (ip), vehicle: saline with Tween-80): 91 % of control
- T/C (dose: 200.0 mg/kg/injection, schedule: Q01DX009 (ip), vehicle: saline with Tween-80): 109 % of control
- T/C (dose: 200.0 mg/kg/injection, schedule: Q04DX003 (ip), vehicle: saline with Tween-80): 91 % of control

Structure (SMILES): CCOC(=O)NC(NC(=O)OCC)c1ccc(Cl)cc1
- T/C (dose: 100.0 mg/kg/injection, schedule: Q04DX003 (ip), vehicle: saline): 99 % of control
- T/C [1]: 94 % of control
- T/C (dose: 400.0 mg/kg/injection, schedule: Q04DX003 (ip), vehicle: saline): 107 % of control

Structure (SMILES): CC(C)CC(NC(=O)C(Cc1ccccc1)NC(=O)CNC(=O)CNC(=O)C(N)Cc1ccc(O)cc1)C(=O)O (configuration not stated)
- T/C (dose: 12.5 mg/kg/injection, schedule: Q01DX005 (ip), vehicle: water): 110 % of control
- T/C (dose: 25.0 mg/kg/injection, schedule: Q01DX005 (ip), vehicle: water): 103 % of control
- T/C (dose: 50.0 mg/kg/injection, schedule: Q01DX005 (ip), vehicle: water): 95 % of control
- T/C (dose: 100.0 mg/kg/injection, schedule: Q01DX005 (ip), vehicle: water): 98 % of control
- T/C (dose: 200.0 mg/kg/injection, schedule: Q01DX005 (ip), vehicle: water): 100 % of control

Structure (SMILES): O=S(=O)(O)O.[Cu+2].[NH-]CCC[N-]CCCC[N-]CCC[NH-]
- T/C (dose: 6.25 mg/kg/injection, schedule: Q01DX001 (ip), vehicle: saline): 108 % of control
- T/C (dose: 12.5 mg/kg/injection, schedule: Q01DX001 (ip), vehicle: saline): 113 % of control and 92 % of control
- T/C (dose: 25.0 mg/kg/injection, schedule: Q01DX001 (ip), vehicle: saline): 113 % of control
- T/C (dose: 50.0 mg/kg/injection, schedule: Q01DX001 (ip), vehicle: saline): 106 % of control

Structure (SMILES): Cc1cc(N2CCCCC2)cc(=O)o1
- T/C (dose: 50.0 mg/kg/injection, schedule: Q01DX009 (ip), vehicle: Klucel (hydroxypropylcellulose) (HPC)): 104 % of control
- T/C (dose: 100.0 mg/kg/injection, schedule: Q01DX009 (ip), vehicle: Klucel (hydroxypropylcellulose) (HPC)): 102 % of control

Structure (SMILES): CCOC(=O)/C=C(\C)Sc1cc(O)c2ccccc2c1O
- T/C (dose: 12.5 mg/kg/injection, schedule: Q01DX009 (ip), vehicle: saline with Tween-80): 119 % of control
- T/C [2]: 108 % of control
